Data taken from ChEMBL document CHEMBL3407393, “Optimisation of LRRK2 inhibitors and assessment of functional efficacy in cell-based models of neuroinflammation” (Eur J Med Chem, 2015).
The source made the active and inactive calls. The calls are words filed in the database; no cut-off is given here.

Assays:
[1] = Inhibition of IL6 secretion in LPS/IL-1beta-stimulated human U87 cells compound pretreated at 10 uM for 30 mins before stimulation measured after 24 hrs by ELISA; format: functional, U-87MG ATCC; conditions: U-87 MG
[2] = (§1) Inhibition of IL6 secretion in LPS/IL-1beta-stimulated human primary microglia compound pretreated at 10 uM for 30 mins before stimulation measured after 24 hrs by ELISA; format: functional
[3] = target: Leucine-rich repeat serine/threonine-protein kinase 2 (Homo sapiens, UniProt Q5S007, G2019S); test: Inhibition of LRRK2 G2019S mutant ([…]) (unknown origin) stably expressed in HEK293 cell lysate using [gamma-32P] after 15 mins by Cerenkov counting method; format: cell-free
Leucine-rich repeat serine/threonine-protein kinase 2, sequence (Q5S007 whole entry G2019S): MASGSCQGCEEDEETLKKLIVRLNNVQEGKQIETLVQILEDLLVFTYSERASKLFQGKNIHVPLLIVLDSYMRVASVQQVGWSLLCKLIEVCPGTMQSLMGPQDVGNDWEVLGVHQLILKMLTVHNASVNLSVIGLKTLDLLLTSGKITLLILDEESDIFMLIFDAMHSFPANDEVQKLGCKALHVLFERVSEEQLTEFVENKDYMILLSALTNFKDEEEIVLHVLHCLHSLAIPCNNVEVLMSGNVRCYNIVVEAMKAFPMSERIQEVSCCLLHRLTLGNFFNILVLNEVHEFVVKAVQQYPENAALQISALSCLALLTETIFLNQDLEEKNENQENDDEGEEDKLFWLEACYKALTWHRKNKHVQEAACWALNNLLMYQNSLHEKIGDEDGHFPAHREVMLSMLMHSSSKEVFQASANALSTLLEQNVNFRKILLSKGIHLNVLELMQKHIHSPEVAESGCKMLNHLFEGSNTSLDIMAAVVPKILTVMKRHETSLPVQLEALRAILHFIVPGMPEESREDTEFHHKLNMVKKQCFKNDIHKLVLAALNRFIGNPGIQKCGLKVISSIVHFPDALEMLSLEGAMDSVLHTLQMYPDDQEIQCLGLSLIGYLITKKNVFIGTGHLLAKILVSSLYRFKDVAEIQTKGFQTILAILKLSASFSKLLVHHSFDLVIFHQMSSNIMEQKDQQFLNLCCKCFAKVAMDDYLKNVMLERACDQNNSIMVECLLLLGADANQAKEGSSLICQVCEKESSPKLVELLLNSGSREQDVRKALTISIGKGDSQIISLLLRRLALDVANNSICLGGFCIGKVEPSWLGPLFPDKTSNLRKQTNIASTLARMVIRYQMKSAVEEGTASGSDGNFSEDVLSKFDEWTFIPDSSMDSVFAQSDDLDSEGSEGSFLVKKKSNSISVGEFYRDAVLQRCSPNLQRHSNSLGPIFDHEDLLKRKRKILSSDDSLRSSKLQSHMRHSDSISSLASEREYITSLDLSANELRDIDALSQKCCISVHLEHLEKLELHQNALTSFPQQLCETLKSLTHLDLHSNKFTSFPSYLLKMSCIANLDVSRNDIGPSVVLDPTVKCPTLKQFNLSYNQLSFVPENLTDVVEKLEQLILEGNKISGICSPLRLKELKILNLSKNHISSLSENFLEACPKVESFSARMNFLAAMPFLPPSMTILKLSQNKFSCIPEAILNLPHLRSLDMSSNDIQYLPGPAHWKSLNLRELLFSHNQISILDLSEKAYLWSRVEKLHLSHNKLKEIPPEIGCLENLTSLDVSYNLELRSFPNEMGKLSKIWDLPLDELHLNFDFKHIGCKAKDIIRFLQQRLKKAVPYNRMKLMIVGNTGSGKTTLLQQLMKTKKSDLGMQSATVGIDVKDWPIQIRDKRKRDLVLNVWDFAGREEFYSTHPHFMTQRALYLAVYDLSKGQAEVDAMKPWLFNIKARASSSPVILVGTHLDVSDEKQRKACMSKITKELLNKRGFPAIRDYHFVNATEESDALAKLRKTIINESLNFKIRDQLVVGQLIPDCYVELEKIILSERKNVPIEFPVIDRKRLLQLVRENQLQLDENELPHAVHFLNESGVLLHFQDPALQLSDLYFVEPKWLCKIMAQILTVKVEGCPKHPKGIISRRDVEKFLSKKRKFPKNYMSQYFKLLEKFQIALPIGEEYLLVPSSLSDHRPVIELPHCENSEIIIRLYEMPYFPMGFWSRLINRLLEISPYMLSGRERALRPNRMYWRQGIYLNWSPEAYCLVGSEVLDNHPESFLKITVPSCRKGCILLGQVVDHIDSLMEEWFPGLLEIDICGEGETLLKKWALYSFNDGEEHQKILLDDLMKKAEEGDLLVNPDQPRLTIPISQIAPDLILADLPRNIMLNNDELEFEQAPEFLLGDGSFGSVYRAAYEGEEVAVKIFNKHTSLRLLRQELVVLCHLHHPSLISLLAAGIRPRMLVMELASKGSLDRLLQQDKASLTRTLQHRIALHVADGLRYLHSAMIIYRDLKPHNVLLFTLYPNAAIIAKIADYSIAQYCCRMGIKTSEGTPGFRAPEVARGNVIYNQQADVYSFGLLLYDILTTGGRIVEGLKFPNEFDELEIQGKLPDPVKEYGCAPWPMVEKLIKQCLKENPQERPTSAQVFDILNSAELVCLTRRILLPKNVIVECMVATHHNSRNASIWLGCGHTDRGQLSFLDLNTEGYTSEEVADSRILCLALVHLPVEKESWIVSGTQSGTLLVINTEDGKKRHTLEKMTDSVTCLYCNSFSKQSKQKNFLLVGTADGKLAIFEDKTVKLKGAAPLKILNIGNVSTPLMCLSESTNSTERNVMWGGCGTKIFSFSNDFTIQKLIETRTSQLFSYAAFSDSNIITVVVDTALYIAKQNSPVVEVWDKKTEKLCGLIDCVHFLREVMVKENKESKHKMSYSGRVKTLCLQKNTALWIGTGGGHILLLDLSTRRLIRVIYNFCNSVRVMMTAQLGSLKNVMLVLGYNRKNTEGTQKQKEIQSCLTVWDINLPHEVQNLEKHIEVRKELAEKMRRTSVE

[4] = Biochemical index, ratio of IC50 for LRRK2 G2019S mutant (unknown origin) to EC50 for IL6 secretion in LPS/IL-1beta-stimulated human primary microglia
[5] = Inhibition of IL6 secretion in LPS/IL-1beta-stimulated human U87 cells compound pretreated for 30 mins before stimulation measured after 24 hrs by ELISA; format: functional, cell-based, U-87MG ATCC; conditions: U-87 MG
[6] = Inhibition of IL6 secretion in LPS/IL-1beta-stimulated human primary microglia compound pretreated for 30 mins before stimulation measured after 24 hrs by ELISA; format: functional
[7] = Oral bioavailability in mouse; format: ADME, organism-based; conditions: in vivo
Homo sapiens = species on record: Homo sapiens; test: as §1; format: functional

Row | Compound | IC50 [3] | EC50 [5] | EC50 [6] | bioavailability [7] | inhibition at 10 µM [1] | inhibition at 10 µM [2] | Ratio IC50/EC50 [4] | inhibition (Homo sapiens)
1 | COc1ccccc1Nc1ccc(C(=O)N2CCC(N3CCCCC3)CC2)cc1Cl | > 1000 nM |  |  |  | 58.6% | 56.6% |  | 
2 | O=C(c1ccc(Nc2ccc([N+](=O)[O-])cc2)c(Cl)c1)N1CCC(N2CCCCC2)CC1 | > 1000 nM |  |  |  | 47.9% | 53.6% |  | 
3 | CN1C(=O)c2ccccc2N(C)c2nc(Cl)ncc21 | > 1000 nM |  |  |  | 23.2% | 18% |  | 
4 | Cc1ccc(Nc2ccc(C(=O)N3CCC(N4CCCCC4)CC3)cc2Cl)cc1 | > 1000 nM |  |  |  | 37.8% | 29.7% |  | 
5 | Cc1ccc(CNc2ccc(C(=O)N3CCC(N4CCCCC4)CC3)cc2Cl)cc1 | > 1000 nM |  |  |  | 36.1% | 42% |  | 
6 | CN1Cc2ccccc2N(C)c2nc(Nc3ccc(C(=O)N4CCC(N5CCCCC5)CC4)cc3Cl)ncc21 | 51.2 nM |  |  |  | 58.8% | 70% |  | 
7 | O=C(c1ccc(Nc2ncccn2)c(Cl)c1)N1CCC(N2CCCCC2)CC1 | > 1000 nM |  |  |  | 39.3% | 46.4% |  | 
8 | CN1C(=O)c2ccccc2N(C)c2nc(Nc3ccc(C(=O)N4CCC(N5CCCCC5)CC4)cc3Cl)ncc21 | 72 nM | 3680 nM | 4260 nM |  | 87.9% | 81.3% | 0.017 | 
9 | Cn1cccc1CNc1ccc(C(=O)N2CCC(N3CCCCC3)CC2)cc1Cl | > 1000 nM |  |  |  | 42.4% | 17.3% |  | 
10 | O=C(c1ccc(NC2CCCCC2)c(Cl)c1)N1CCC(N2CCCCC2)CC1 | > 1000 nM |  |  |  | 54.2% | 82.4% |  | 
11 | O=C(Nc1ccc(C(=O)N2CCC(N3CCCCC3)CC2)cc1Cl)c1ccc[nH]1 | > 1000 nM |  |  |  | 51.9% |  |  | inactive
12 | CCCNc1ccc(C(=O)N2CCC(N3CCCCC3)CC2)cc1Cl | > 1000 nM |  |  |  | 55.8% | 47.6% |  | 
13 | O=C(c1ccc(Nc2cncnc2)c(Cl)c1)N1CCC(N2CCCCC2)CC1 | > 1000 nM |  |  |  | 40.7% |  |  | 
14 | COc1cccc(CNc2ccc(C(=O)N3CCC(N4CCCCC4)CC3)cc2Cl)c1 | > 1000 nM |  |  |  | 52% | 52.9% |  | 
15 | O=C(c1ccc(NCc2ccccc2)c(Cl)c1)N1CCC(N2CCCCC2)CC1 | > 1000 nM |  |  |  | 62.6% | 65.3% |  | 
16 | O=C(c1ccc(Nc2ccccn2)c(Cl)c1)N1CCC(N2CCCCC2)CC1 | > 1000 nM |  |  |  | 46.7% | 7.3% |  | 
17 | CC(=O)Nc1ccc(Nc2ccc(C(=O)N3CCC(N4CCCCC4)CC3)cc2Cl)cc1 | > 1000 nM |  |  |  | 36.1% | 31.8% |  | 

Continued, in another order:

Row | IC50 [3] | EC50 [5] | EC50 [6] | bioavailability [7] | Compound | inhibition at 10 µM [1] | inhibition at 10 µM [2] | Ratio IC50/EC50 [4] | inhibition (Homo sapiens)
18 | > 1000 nM |  |  |  | O=C(c1ccc(Nc2cccnc2)c(Cl)c1)N1CCC(N2CCCCC2)CC1 | 46.6% | 36.3% |  | 
19 | 654 nM |  |  |  | Nc1ccc(C(=O)N2CCC(N3CCCCC3)CC2)cc1Cl | 49.9% | 16.9% |  | 
20 | > 1000 nM |  |  |  | O=C(c1ccc(NCc2ccc([N+](=O)[O-])cc2)c(Cl)c1)N1CCC(N2CCCCC2)CC1 | 56.4% | 56.3% |  | 
21 | 7.9 nM | 660 nM | 830 nM | 49.3% | COc1cc(C(=O)N2CCC(N3CCN(C)CC3)CC2)ccc1Nc1ncc2c(n1)N(C)c1ccccc1C(=O)N2C | 94.1% | 95% | 0.009 | 
22 | > 1000 nM |  |  |  | O=C(c1ccc(Nc2ccccc2)c(Cl)c1)N1CCC(N2CCCCC2)CC1 | 32.3% | 44.7% |  | 
23 | > 1000 nM |  |  |  | O=C(c1ccc(Nc2ccccc2[N+](=O)[O-])c(Cl)c1)N1CCC(N2CCCCC2)CC1 | 45.6% | 65.4% |  | 
24 | > 1000 nM |  |  |  | COc1cccc(Nc2ccc(C(=O)N3CCC(N4CCCCC4)CC3)cc2Cl)c1 | 47.8% | 53% |  | 
25 | > 1000 nM |  |  |  | CN1Cc2ccccc2N(C)c2nc(Cl)ncc21 | 64.6% | 6.3% |  | 
